Experimental findings from ChEMBL document CHEMBL1201862, “PubChem BioAssay data set” (2004) are described below.

Test systems include NCI/ADR-RES; ACHN; OVCAR-5; IGROV-1; COLO 205; M14; A549; Hs-578T; HOP-92; SK-OV-3; TK-10; UACC-257; EKVX; MCF7; MOLT-4; K562; HOP-62; HCT-15; RXF 393; HCT-116.
Common to all, as to assay: NCI tumour cell line growth inhibition, 48 h

The structures appear in SMILES notation.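 96-well plates; 48 h exposure; 5 concentrations. Endpoints by linear interpolation between flanking doses. Not reached: highest tested concentration assigned. At the GI50, growth is halved.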 Active and inactive are the calls of the source. Rule as the data show it: active = GI50 up to about 1.1 µM and inactive = higher. Where only a bound is given, the exact number is not on record here.

Take `N#CCCCCC12C3C(=O)N(c4ccccc4)C(=O)C3ON1O[C@@H]1C(=O)N(c3ccccc3)C(=O)[C@@H]12` (some centres not stated): the GI50 in the test with NCI/ADR-RES, in the test on ACHN, with OVCAR-5, in the test with IGROV-1, with COLO 205 and with M14 was > 100 µM (inactive) throughout. Also, the GI50 in the test on A549, in the test on Hs-578T, with HOP-92, in the test on SK-OV-3, in the test on TK-10 and in the test on UACC-257 was > 100 µM (inactive) each time. Moreover, the GI50 in the test on EKVX is > 100 µM (inactive); in the test on MCF7, > 100 µM (inactive); in the test with MOLT-4 it was > 100 µM (inactive); with K562, > 100 µM (inactive); with HOP-62, > 100 µM (inactive); with HCT-15, above 100 µM.
On to `O=C1C(C(c2ccccc2)N2CCOCC2)=C(O)C(c2ccccc2)N1c1ccccc1` (configuration not stated), for which the GI50 in the test on NCI/ADR-RES, in the test on ACHN, in the test with OVCAR-5, in the test with IGROV-1, with COLO 205 and with M14 was > 10 µM (inactive) each time. The GI50 in the test with A549, in the test on Hs-578T, with RXF 393, with SK-OV-3, with TK-10 and in the test on UACC-257 was > 10 µM (inactive) throughout. Also, the GI50 in the test on EKVX was > 10 µM (inactive); with HCT-116, > 10 µM (inactive); in the test on MCF7, > 10 µM (inactive); with MOLT-4 it was 4.31 µM (inactive); in the test on K562 it was > 10 µM (inactive); with HOP-62, > 10 µM (inactive). In addition, the GI50 with HCT-15 was above 10 µM.
In the case of `CC1(C)Oc2ccc3c(=O)c4ccccc4oc3c2C1C(=O)O` (configuration not stated), the GI50 in the test with NCI/ADR-RES, in the test with OVCAR-5, in the test on IGROV-1, with COLO 205, in the test with M14 and with A549 was > 100 µM (inactive) throughout. The GI50 with Hs-578T, in the test on RXF 393, in the test on SK-OV-3, with TK-10, in the test with UACC-257 and in the test with EKVX was > 100 µM (inactive) in each case. Further, the GI50 in the test with HCT-116, in the test on MCF7, in the test on MOLT-4, with K562 and in the test on HOP-62 was > 100 µM (inactive) each time.
For `CCN(CC)C(=O)N[C@@H](Cc1ccccc1)C(=O)NC`, the GI50 in the test with NCI/ADR-RES, in the test on ACHN, in the test on OVCAR-5, in the test on IGROV-1, with COLO 205 and in the test on M14 was > 100 µM (inactive) each time. The GI50 with A549, with Hs-578T, with RXF 393, in the test with SK-OV-3, in the test on EKVX and in the test with HCT-116 was > 100 µM (inactive) throughout. Also, the GI50 in the test on MCF7 is > 100 µM (inactive); with MOLT-4, > 100 µM (inactive); with K562, > 100 µM (inactive); in the test with HOP-62, > 100 µM (inactive); in the test on HCT-15, above 100 µM.
In the case of `O=C(c1nsc(Cl)c1Cl)N1CCCCC1`, the GI50 with NCI/ADR-RES, in the test on OVCAR-5, in the test on IGROV-1, in the test with COLO 205, with M14 and in the test with A549 was > 100 µM (inactive) in each case. For the same molecule, the GI50 in the test on Hs-578T, in the test with RXF 393, in the test on SK-OV-3, in the test on TK-10, in the test with UACC-257 and with EKVX was > 100 µM (inactive) in each case. Besides, the GI50 in the test with HCT-116 was > 100 µM (inactive); in the test with MCF7, > 100 µM (inactive); with MOLT-4 it was > 100 µM (inactive); in the test with K562, > 100 µM (inactive); in the test with HOP-62, > 100 µM (inactive); in the test with HCT-15 it was above 100 µM.
Take `COc1c2c(c3c(c1OC)c(=O)c1ccccc1n3C)OCO2`: the GI50 in the test on NCI/ADR-RES, in the test on ACHN, in the test with OVCAR-5, in the test on IGROV-1, in the test with COLO 205 and in the test on M14 was > 100 µM (inactive) in each case. Besides, the GI50 in the test with A549, with Hs-578T, in the test on HOP-92, with SK-OV-3, with TK-10 and with UACC-257 was > 100 µM (inactive) in each case. Besides, the GI50 was 45.2 µM (inactive) in the test with EKVX; > 100 µM (inactive) in the test on HCT-116; > 100 µM (inactive) in the test on MCF7; > 100 µM (inactive) with MOLT-4; 81.5 µM (inactive) in the test with K562; > 100 µM (inactive) with HOP-62. Besides, the GI50 in the test on HCT-15 is above 100 µM.
Turning to `CCOC(=O)C1(C/C=C/CBr)CCc2ccccc2C1=O` (configuration not stated), the GI50 was 22 µM (inactive) in the test with NCI/ADR-RES; 13.6 µM (inactive) with ACHN; 29 µM (inactive) with OVCAR-5; 11.1 µM (inactive) with IGROV-1; 17.2 µM (inactive) in the test with COLO 205; 13.1 µM (inactive) in the test on M14. Further, the GI50 in the test on A549 is 14 µM (inactive); in the test with Hs-578T, 30.8 µM (inactive); in the test with RXF 393 it was 6.03 µM (inactive); in the test with SK-OV-3 it was 19 µM (inactive); in the test with TK-10 it was 10.4 µM (inactive); with UACC-257 it was 15.9 µM (inactive). Besides, the GI50 in the test on EKVX is 27.5 µM (inactive); in the test on HCT-116, 13.3 µM (inactive); with MCF7, 7.89 µM (inactive); in the test on MOLT-4 it was 9.1 µM (inactive); in the test on HOP-62 it was 16.2 µM (inactive); in the test with HCT-15, 19.7 µM.
Regarding `COC(=O)C1(O)C(c2ccccc2)NC2(C)CCCC21` (configuration not stated), the GI50 in the test with NCI/ADR-RES, in the test with ACHN, with IGROV-1, with COLO 205, in the test with M14 and in the test with A549 was > 100 µM (inactive) throughout. Further, the GI50 with Hs-578T, with RXF 393, with SK-OV-3, in the test on TK-10, in the test with UACC-257 and in the test on HCT-116 was > 100 µM (inactive) throughout. Also, the GI50 is > 100 µM (inactive) in the test with MCF7, > 100 µM (inactive) in the test on MOLT-4, > 100 µM (inactive) in the test with HOP-62 and above 100 µM in the test on HCT-15.
